Reference: PMC10755728, “Inhibitors of the Elastase LasB for the Treatment of Pseudomonas aeruginosa Lung Infections” (ACS Central Science, 2023)
Read-outs that look alike come from different tables or passages of the source.

Key:
[1] = target: T1, LasB (Pseudomonas aeruginosa, UniProt Q02RJ6); test: biochemical; type: biochemical; conditions: for inhibition at 100 µM: read-out: % inh LasB @100 µM
T1 construct: made in house

[2] = target: ColH-PD (Hathewaya histolytica, UniProt Q46085); test: biochemical; type: biochemical, Clostridium histolyticum; conditions: read-out: % inhibition ColH-PD @1 µM
[3] = Calu-3 permeability; type: in vitro ADME; conditions: human
[4] = target: T2, HDAC-8 (Homo sapiens, UniProt Q9BY41); test: HDAC-8 inhibitor screening kit; type: biochemical
T2 construct: purchased Sigma-Aldrich (Saint Louis, MO)
T2 sequence (Q9BY41 1-377): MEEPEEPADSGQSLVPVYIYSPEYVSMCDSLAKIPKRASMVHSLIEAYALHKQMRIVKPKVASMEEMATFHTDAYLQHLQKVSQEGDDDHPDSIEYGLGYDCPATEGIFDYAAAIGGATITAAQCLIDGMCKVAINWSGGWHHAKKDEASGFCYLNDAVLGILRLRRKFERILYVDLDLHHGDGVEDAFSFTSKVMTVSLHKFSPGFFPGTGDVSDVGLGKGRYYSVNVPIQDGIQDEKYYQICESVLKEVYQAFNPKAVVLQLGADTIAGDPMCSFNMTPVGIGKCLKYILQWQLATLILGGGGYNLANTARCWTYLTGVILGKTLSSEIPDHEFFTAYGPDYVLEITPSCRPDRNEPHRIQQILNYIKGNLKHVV

[5] = target: T3, MMP-3 (Homo sapiens, UniProt P08254); test: MMP-3 inhibition assay; type: biochemical; conditions: read-out: % inhibition MMP-3
T3 construct: purchased AnaSpec (Fremont, CA, USA)

[6] = target: T4, TACE (Homo sapiens, UniProt P78536); test: TACE inhibitor screening kit; type: biochemical; conditions: read-out: % inhibition TACE
T4 construct: purchased Sigma-Aldrich (Saint Louis, MO)

[7] = Metabolic stability in human liver S9 fraction; type: in vitro ADME
[8] = Plasma stability, mouse; type: in vitro ADME; conditions: mouse plasma; read-out: Plasma T1/2 Mouse
[9] = Lipophilicity determination (LogD7.4, HPLC-MS); type: physicochemical; conditions: pH 7.4, pH 7.4, chromatographic
Procedure: Lipophilicity determination. LogD7.4 was analyzed using an HPLC−MS based method.50 The retention time of 12 compounds with known LogD7.4 was determined and plotted toward their LogD7.4. Linear regression was used to determine the LogD7.4 of unknown compounds. Analysis was performed using a Dionex Ultimate 3000 HPLC system coupled to a TSQ Quantum Access MAX (Thermo Fisher, Dreieich, Germany) with the following conditions: EC150/2 NUCLEODUR C18 Pyramid column, 5 μM (Macherey Nagel, Düren, Germany); eluent A: 50 mM NH4OAc pH 7.4, eluent B: acetonitrile, and flow: 0.6 mL/min.

[10] = target: T5, COX-1 (Ovis aries, UniProt P05979); test: Fluorometric COX-1 inhibitor assay; type: biochemical, human
T5 construct: purchased Abcam (Cambridge, UK)
T5 sequence (P05979 25-600): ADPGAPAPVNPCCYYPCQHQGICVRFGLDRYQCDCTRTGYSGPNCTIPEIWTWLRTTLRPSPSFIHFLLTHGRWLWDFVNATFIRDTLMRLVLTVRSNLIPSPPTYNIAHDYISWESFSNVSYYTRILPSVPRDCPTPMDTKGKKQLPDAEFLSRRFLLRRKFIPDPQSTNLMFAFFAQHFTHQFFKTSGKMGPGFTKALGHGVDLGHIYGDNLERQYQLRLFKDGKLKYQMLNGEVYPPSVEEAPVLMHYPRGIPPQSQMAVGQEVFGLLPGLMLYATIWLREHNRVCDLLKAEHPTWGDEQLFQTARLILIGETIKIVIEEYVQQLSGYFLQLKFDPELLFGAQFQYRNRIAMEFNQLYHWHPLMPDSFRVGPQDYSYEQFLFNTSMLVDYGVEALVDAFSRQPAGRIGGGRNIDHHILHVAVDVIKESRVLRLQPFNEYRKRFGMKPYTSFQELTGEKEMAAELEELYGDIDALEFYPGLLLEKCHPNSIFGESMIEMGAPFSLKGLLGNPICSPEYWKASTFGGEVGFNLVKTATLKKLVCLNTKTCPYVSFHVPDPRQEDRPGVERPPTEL

[11] = target: T6, MMP-1 (Homo sapiens, UniProt P03956); test: MMP-1 inhibition assay; type: biochemical; conditions: read-out: % inhibition MMP-1
T6 construct: purchased AnaSpec (Fremont, CA, USA)
T6 sequence (P03956 100-469): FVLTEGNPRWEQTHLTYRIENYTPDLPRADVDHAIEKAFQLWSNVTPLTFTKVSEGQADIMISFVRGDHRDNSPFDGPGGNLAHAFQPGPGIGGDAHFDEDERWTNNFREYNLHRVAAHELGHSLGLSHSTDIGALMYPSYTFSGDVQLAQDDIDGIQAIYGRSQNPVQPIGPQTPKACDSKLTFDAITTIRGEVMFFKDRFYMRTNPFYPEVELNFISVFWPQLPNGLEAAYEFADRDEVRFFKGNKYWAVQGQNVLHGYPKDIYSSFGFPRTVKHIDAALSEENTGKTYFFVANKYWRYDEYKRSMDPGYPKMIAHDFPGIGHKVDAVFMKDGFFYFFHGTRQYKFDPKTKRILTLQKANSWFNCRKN

[12] = target: T7, HDAC-3 (Homo sapiens, UniProt O15379); test: HDAC-3 inhibitor screening kit; type: biochemical
T7 construct: purchased Sigma-Aldrich (Saint Louis, MO)

[13] = Metabolic stability in mouse liver S9 fraction; type: in vitro ADME
[14] = target: T8, MMP-2 (Homo sapiens, UniProt P08253); test: MMP-2 inhibition assay; type: biochemical; conditions: read-out: % inhibition MMP-2
T8 construct: purchased AnaSpec (Fremont, CA, USA)
T8 sequence (P08253 110-660): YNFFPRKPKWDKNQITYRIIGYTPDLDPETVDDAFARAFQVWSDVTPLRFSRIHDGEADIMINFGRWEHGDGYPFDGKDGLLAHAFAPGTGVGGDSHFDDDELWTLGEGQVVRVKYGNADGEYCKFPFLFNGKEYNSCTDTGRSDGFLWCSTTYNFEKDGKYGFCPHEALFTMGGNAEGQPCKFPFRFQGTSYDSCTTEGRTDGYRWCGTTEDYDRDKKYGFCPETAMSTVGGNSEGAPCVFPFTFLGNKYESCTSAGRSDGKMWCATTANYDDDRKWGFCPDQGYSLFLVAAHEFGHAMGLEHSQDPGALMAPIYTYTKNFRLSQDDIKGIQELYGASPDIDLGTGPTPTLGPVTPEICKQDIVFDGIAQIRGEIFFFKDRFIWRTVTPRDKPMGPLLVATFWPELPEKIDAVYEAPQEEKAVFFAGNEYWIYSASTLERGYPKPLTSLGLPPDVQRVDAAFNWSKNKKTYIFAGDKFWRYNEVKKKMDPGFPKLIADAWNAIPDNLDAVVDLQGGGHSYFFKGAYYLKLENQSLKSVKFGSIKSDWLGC

[15] = test system: HEK293; conditions: human, 48 h, 100 µM
Procedure: Culturing of HepG2, A549 and HEK293 cells. The human hepatocellular carcinoma cell line HepG2, the lung adenocarcinoma cell line A549 and Human Embryonic (HEK) 293 cells were cultured in Dulbecco's Modified Eagle Medium (DMEM), containing 10% Fetal Bovine Serum
(FBS) and 1% penicillin-streptomycin mixture. Cells were maintained according to standard cell
Cytotoxicity assay. An MTT-based assay was employed to evaluate the viability of HepG2,
HEK293 and A549 cells after challenge with selected LasB inhibitors and performed as described

[16] = test system: P. aeruginosa PA14; test: Bacterial growth inhibition assay; type: cell-based, Pseudomonas aeruginosa; conditions: Pseudomonas aeruginosa, PA14; 100 µM compound concentration; read-out: Percent (%) growth inhibition of P. aeruginosa PA14
Procedure: Bacterial growth inhibition assay. Assays regarding the determination of the MIC were
performed as described recently for P. aeruginosa PA14.58

[17] = FRET-based assay, read-out: LasB IC50

T1 sequence (Q02RJ6 198-498): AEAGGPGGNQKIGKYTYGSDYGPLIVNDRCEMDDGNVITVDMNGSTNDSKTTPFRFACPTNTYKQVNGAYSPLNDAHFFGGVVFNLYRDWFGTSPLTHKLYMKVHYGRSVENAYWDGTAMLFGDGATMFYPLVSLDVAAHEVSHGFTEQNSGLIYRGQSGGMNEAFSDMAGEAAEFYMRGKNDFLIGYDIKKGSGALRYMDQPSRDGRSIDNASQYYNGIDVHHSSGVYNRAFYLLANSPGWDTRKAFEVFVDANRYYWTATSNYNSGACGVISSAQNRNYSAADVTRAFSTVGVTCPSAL
T4 sequence (P78536 215-824): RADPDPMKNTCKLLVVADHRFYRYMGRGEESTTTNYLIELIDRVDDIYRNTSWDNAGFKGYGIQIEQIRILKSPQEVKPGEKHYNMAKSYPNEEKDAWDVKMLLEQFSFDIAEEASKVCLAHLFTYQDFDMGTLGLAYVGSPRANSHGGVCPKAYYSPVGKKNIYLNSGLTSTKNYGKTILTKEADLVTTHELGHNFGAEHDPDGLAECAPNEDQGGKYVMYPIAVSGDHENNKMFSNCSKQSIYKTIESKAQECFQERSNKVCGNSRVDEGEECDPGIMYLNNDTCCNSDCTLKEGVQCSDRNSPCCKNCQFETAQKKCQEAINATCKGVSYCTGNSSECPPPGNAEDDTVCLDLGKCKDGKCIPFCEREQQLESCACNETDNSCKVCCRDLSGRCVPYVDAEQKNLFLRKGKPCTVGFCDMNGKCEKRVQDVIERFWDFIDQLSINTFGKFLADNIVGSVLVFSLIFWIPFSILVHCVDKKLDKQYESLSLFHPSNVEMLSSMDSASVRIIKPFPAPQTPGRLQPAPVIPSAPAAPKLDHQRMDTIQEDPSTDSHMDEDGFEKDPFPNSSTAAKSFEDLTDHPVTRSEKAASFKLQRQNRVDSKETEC
T3 sequence (P08254 100-477): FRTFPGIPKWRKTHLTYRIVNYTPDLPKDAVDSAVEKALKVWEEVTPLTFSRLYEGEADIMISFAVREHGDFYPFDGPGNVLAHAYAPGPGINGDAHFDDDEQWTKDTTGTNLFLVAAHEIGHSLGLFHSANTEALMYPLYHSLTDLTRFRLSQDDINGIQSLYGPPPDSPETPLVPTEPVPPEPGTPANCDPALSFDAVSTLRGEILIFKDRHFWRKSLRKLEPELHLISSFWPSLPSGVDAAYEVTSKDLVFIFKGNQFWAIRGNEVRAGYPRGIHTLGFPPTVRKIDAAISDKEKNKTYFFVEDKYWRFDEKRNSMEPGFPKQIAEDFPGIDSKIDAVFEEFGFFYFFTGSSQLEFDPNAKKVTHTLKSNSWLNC
Chain of ColH-PD (Q46085 331-721 limits assumed): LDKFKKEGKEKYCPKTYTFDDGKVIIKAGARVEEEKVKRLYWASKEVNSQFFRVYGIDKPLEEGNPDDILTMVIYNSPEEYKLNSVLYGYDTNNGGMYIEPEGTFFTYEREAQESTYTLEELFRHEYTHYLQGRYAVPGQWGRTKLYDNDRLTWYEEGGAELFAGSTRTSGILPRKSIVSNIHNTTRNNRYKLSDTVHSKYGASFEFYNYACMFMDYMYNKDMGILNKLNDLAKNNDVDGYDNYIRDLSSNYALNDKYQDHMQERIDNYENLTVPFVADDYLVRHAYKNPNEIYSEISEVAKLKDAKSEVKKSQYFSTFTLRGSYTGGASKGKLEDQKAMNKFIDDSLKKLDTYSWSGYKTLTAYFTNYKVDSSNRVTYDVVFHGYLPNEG
T7 sequence (O15379 whole entry): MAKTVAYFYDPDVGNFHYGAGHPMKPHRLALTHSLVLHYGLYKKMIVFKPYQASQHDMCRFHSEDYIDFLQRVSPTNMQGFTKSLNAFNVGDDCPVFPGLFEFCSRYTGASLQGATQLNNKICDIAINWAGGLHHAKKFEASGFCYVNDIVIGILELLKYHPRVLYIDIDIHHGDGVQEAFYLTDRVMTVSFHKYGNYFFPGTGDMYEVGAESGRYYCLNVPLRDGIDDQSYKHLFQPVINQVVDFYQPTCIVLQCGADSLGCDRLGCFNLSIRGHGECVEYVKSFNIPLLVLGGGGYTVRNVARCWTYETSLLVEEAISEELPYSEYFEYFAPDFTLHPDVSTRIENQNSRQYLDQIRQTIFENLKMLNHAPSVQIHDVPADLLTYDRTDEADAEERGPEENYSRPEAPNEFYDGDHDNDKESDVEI
T7 sequence (Q9Y618 395-489 partner limits assumed): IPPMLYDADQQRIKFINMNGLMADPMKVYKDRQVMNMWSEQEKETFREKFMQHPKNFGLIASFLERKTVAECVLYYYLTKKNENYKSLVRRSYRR

In the case of `CC(C)CC(C(=O)Nc1ccc(Cl)c(Cl)c1)P(=O)(O)O` (stereo not shown) [Compound 4c], the IC50 ([1]; LasB IC50, FRET-based assay) is reported as 25.7 ± 4.1 nM, the “fold more active than 4-acetyl (4g)” value ([1]; vs 4g) is reported as 1.6 fold and the inhibition at 1 µM [2] is reported as < 10%.
`CC(C)CC(C(=O)Nc1ccc(C(N)=O)nc1)P(=O)(O)O` (stereo not shown) [Compound 4r] gave an IC50 ([1]; LasB IC50, FRET-based assay) of 220 ± 20 nM.
`CC(C)CC(C(=O)Nc1cccc2ccccc12)P(=O)(O)O` (stereo not shown) [Compound 4m] gave an IC50 [1, 17] of 69.1 ± 7.5 nM.
Compound `O=C(Nc1ccc(C(F)(F)F)cc1)C(Cc1ccccc1)P(=O)(O)O` (stereo not shown) [Compound 4y] has an IC50 [1, 17] of 101.5 ± 0.9 nM.
For `Cc1ccc(NC(=O)C(CC(C)C)n2ccnn2)cc1` (stereo not shown) [Compound 3l], the Papp at 300 min [3] was 17 ± 1 ×10⁻⁶ cm/s, the inhibition at 100 µM [4] was < 10% and the inhibition at 100 µM ([5]; 100 μM) was < 10%. For the same compound, the inhibition at 100 µM ([6]; 100 μM) was < 10%, the microsomal CLint at 1 μM [7] was 8.8 ± 1.2 µL/min/mg and the half-life at 1 μM [8] was > 2.5 h. For the same compound, the chromatographic logD [9] was > 1.8, the inhibition at 100 µM [10] was < 10% and the inhibition at 100 µM ([11]; 100 μM) was < 10%. For the same compound, the inhibition at 100 µM [12] was < 10%, the microsomal CLint at 1 μM [13] was 90 ± 9 µL/min/mg and the inhibition at 100 µM ([14]; 100 μM) was < 10%.
In the case of `CC(C)CC(C(=O)Nc1ccc(C#N)cc1)P(=O)(O)O` (stereo not shown) [Compound 4k], the IC50 ([1]; LasB IC50, FRET-based assay) is reported as ~25 nM, the IC50 ([1]; LasB IC50 in presence of 1% pulmonary surfactant, 1% pulmonary surfactant) is reported as 85 nM and the “% growth inhibition HEK293” value [15] is reported as 15 ± 23%. The inhibition at 100 µM [5] was 11 ± 5%, the inhibition at 100 µM [6] was < 10% and the microsomal CLint at 1 μM [7] was < 5.8 µL/min/mg. For the same compound, the half-life at 1 μM [8] was > 2.5 h, the chromatographic logD [9] was -0.87 and the inhibition at 100 µM [10] was < 10%. For the same compound, the inhibition at 100 µM [11] was 10 ± 5%, the inhibition at 100 µM [16] was < 10% and the microsomal CLint at 1 μM [13] was < 5.8 µL/min/mg. For the same compound, the inhibition at 100 µM [14] was < 10%.
Compound `Cc1ccc(NC(=O)C(Cc2ccccc2)P(=O)(O)O)cc1` (stereo not shown) [Compound 4x] has an IC50 [1, 17] of 137 ± 33 nM.
Compound `CCCC(C(=O)Nc1ccc(OC)cc1)P(=O)(O)O` (stereo not shown) [Compound 4ab] has an IC50 ([1]; LasB IC50, FRET-based assay) of 1110 nM.
With `CCCC(C(=O)Nc1ccc(C(C)=O)cc1)P(=O)(O)O` (stereo not shown) [Compound 4ad] the IC50 ([1]; LasB IC50, FRET-based assay) was 870 ± 30 nM.
In the case of `CC(C)CC(C(=O)Nc1ccc2ccccc2c1)P(=O)(O)O` (stereo not shown) [Compound 4n], the IC50 [1, 17] is reported as 63.6 ± 9.9 nM.
In the case of `CC(C)CC(C(=O)Nc1ccc2c(c1)CCC2)P(=O)(O)O` (stereo not shown) [Compound 4o], the IC50 [1, 17] is reported as 44.3 ± 4.5 nM.
With `CCOC(=O)C(CC(C)C)C(=O)Nc1ccc(C)cc1` (stereo not shown) [Compound 3d] the inhibition at 100 µM [1] was < 10%.
In the case of `Cc1ccc(NC(=O)[C@@H](N)CC(C)C)cc1` [Compound 3b], the inhibition at 100 µM [1] is reported as < 10%.
In the case of `Cc1ccc(NC(=O)C(CC(C)C)n2ccnc2)cc1` (stereo not shown) [Compound 3k], the inhibition at 100 µM [1] is reported as 14 ± 4%.
Work on `CC(=O)c1ccc(NC(=O)CP(=O)(O)O)cc1` [Compound 2] yielded an inhibition at 600 µM ([1]; read-out: % LasB inhibition @600 µM) of 33 ± 4%.
